From publication PMC12718261, “New Fluorescent Synthetic Retinoids as Potential RAR Agonists with Anticancer, Molecular Docking and ADME Assessments” (Journal of Fluorescence, 2025) come the findings set out here.

Assay type in all cases: cell-based
In one series the test system is HCT-116. As to the kind of experiment: MTT anti-proliferative assay. To be noted: Homo sapiens; HCT-116, MTT, 24 h, mean ± SEM. How it is done: (§1) The antiproliferation and cytotoxicity were assessed using 3-(4,5-dimethylthiazol-2-yl)−2,5-diphenyltetrazolium bromide (MTT, Serva) colorimetric assay. All tested cancer cell lines were seeded at a density of 20,000 cells per well in 96-well plates and allowed to adhere overnight. The attached cells were treated with five serial dilutions (100, 50, 5, 0.5, and 0.1 μM) in triplicate. These concentrations were prepared by diluting the stock solutions with serum-free culture media. The negative control cells were those treated with 0.1% DMSO solvent alone. The treated cells were handled in reduced light and maintained under standard culture growth conditions for 24 h. After the incubation period, MTT powder was prepared as a stock solution (5 mg/mL), and 20 μL of the MTT working reagent (final concentration 0.5 mg/mL) was added to each well. This was followed by incubation with MTT reagent for 4 h in a humidified atmosphere (37 °C, 5% CO2) with subsequent addition of 150 μL of DMSO solubilizing solvent and incubation for 20 min. The absorbance of solubilized violet formazan crystals was measured at 570 nm with a Biotek 800 TS microplate reader. IC50 was calculated as the concentration of retinoid that produced 50% cell growth inhibition. For cytotoxicity assessment, WI-38 normal human fibroblast cells were used for the calculation of SI, which is the ratio of IC50 retinoid (WI-38)/IC50 retinoid (cancer cell line).
On the technique in general: Tetrazolium assays rely on reduction of a dye to a coloured formazan, in cell work by metabolically active cells.

For a further series, the system named is PC-3. As to the kind of experiment: MTT anti-proliferative assay. To be noted: Homo sapiens; PC-3, MTT, 24 h, mean ± SEM. How it is done: as §1
In a further series the test system is MCF-7. Description: MTT anti-proliferative assay. As to conditions: Homo sapiens, MCF7; MCF-7, MTT, 24 h, mean ± SEM. As to the method: as §1
The subject of a further series is HepG-2. As to the kind of experiment: MTT anti-proliferative assay. To be noted: Homo sapiens, HepG2; HepG-2, MTT, 24 h, mean ± SEM. How it is done:
as §1

Another series concerns Caco-2. Description: MTT anti-proliferative assay. As to conditions: Homo sapiens; Caco-2, MTT, 24 h, mean ± SEM. How it is done:
as §1

In the next series the test system is MDA-MB231. Description: MTT anti-proliferative assay. As to conditions: Homo sapiens, MDA-MB-231, 24 h, mean ± SEM. As to the method:
as §1

Series [1] deals with Caco-2 cancer cells. Description: Apoptosis assay Annexin V/PI flow cytometry. To be noted: Caco-2, IC50 dose, 24 h, AV/PI. As to the method: The standard protocol used in HSBR was performed. […] Cells were rinsed with 1 mL of binding buffer; the cells were again suspended in phosphate-buffered saline (PBS) (Lonza). 100 µL of cell suspension was incubated with 1 µL of FITC-labeled Annexin-V and 5 µL of PI for 15 min at 4 °C in the dark. The suspension was then mixed with 400 µL of ice-cold binding buffer, and each sample's apoptotic cells were analyzed using a Cytoflex flow cytometer (Beckman Coulter, USA), and CytExpert software (version 2.4.0.28) was employed for data analysis.
A general note: A flow cytometer gives signals particle by particle.

Series [2] concerns Caspase-3 gene in Caco-2 cells. As to the kind of experiment: Gene expression RT-qPCR. To be noted: Caco-2, IC50 dose, 24 h, relative to 0.1% DMSO, normalized to GAPDH. As to the method: (§2) The gene expression analysis was performed using real-time quantitative PCR (RT-qPCR), as previously documented. After incubation, cells were harvested, and total RNA was extracted using the Favor-PrepTM Blood/Cultured Cell Total RNA Purification Mini kit (Favorgen Biotech Corp., Ping-Tung, Taiwan). The purified RNA was then reverse transcribed into the first-strand cDNA using the Revert Aid First-Strand cDNA Synthesis Kit (Thermo Scientific, Waltham, MA, USA). All qPCR reactions were carried out using the […] SYBR® Green qPCR Kit (Willowfort, Nottingham, UK). Differential gene expression was performed using the 2ˆ^−ΔΔCT method utilizing GAPDH as a reference gene.
A general note: In qPCR the cycle at which signal appears reflects the starting amount.

Series [3] has as its system RAR-γ gene in Caco-2 cells. As to the kind of experiment: Gene expression RT-qPCR. To be noted: Caco-2, IC50 dose, 24 h, relative to 0.1% DMSO, normalized to GAPDH. As to the method: as §2
The test system of series [4] is CRABPII gene in Caco-2 cells. Description: Gene expression RT-qPCR. As to conditions: Caco-2, IC50 dose, 24 h, relative to 0.1% DMSO, normalized to GAPDH. How it is done:
as §2

The subject of series [5] is Cyt-C gene in Caco-2 cells. Description: Gene expression RT-qPCR. As to conditions: Caco-2, IC50 dose, 24 h, relative to 0.1% DMSO, normalized to GAPDH. As to the method: as §2
For series [6], the system named is CRABPI gene in Caco-2 cells. As to the kind of experiment: Gene expression RT-qPCR. To be noted: Caco-2, IC50 dose, 24 h, relative to 0.1% DMSO, normalized to GAPDH. As to the method: as §2
Series [7] relates to Caco-2 cancer cells. As to the kind of experiment: Cell cycle assay PI staining flow cytometry. As to conditions: Caco-2, IC50 dose, 24 h. As to the method:
The standard protocol used in HSBR was performed. […] Cells were concentrated at 1500 xg and suspended in 50 μg/ml propidium iodide (PI) staining solution and 20 µg/ml RNaseA to identify cells with a sub-G1 DNA content. Cytoflex flow cytometer (Beckman Coulter, USA) was used, and CytExpert software (version 2.4.0.28) was employed for data analysis. The gating strategy used to eliminate doublets depends on plotting the population against a 2D contour plot in four quadrants, referred to as Q1(LL), Q2 (LR), Q3 (UL), and Q4 (UR), that illustrates the spread of the Annexin-FITC-H core cell population against PI PE-H.

Series [8] concerns RAR-β gene in Caco-2 cells. Description: Gene expression RT-qPCR. As to conditions: Caco-2, IC50 dose, 24 h, relative to 0.1% DMSO, normalized to GAPDH.
Experimental: The gene expression analysis was performed using real-time quantitative PCR (RT-qPCR), as previously documented [38]. After incubation, cells were harvested, and total RNA was extracted using the Favor-PrepTM Blood/Cultured Cell Total RNA Purification Mini kit (Favorgen Biotech Corp., Ping-Tung, Taiwan). The purified RNA was then reverse transcribed into the first-strand cDNA using the Revert Aid First-Strand cDNA Synthesis Kit (Thermo Scientific, Waltham, MA, USA). […] SYBR® Green qPCR Kit (Willowfort, Nottingham, UK). Differential gene expression was performed using the 2ˆ^−ΔΔCT method utilizing GAPDH as a reference gene [39].
The test system of series [9] is total ATPase in Caco-2 cells. As to the kind of experiment: Total ATPase activity, malachite green colorimetric. To be noted: Caco-2, IC50 dose, 24 h; 0.1% DMSO control normalized to 100%. As to the method: (§3) The total activity of ATPase and calcium-independent ATPase activity was quantified colorimetrically as described by our previous protocol. […] The inorganic phosphate (Pi) liberated after the hydrolysis of ATP by ATPase enzymes was complexed into a colored product in one step after the addition of a mixed reagent containing malachite green, ammonium molybdate, and polyvinyl alcohol (2:1:1). The intensity of absorbance at 630 nm was measured using the BioTek 800 TS absorbance plate reader (USA) and was directly proportional to the quantity of liberated Pi. In order to eliminate any color due to the non-enzymatic hydrolysis of ATP, control reactions were made using only ATP in the reaction buffer, and the absorbance intensity was then subtracted from the readings of the samples and standards.

Series [10] deals with WI-38 normal human fibroblast cells. As to the kind of experiment: MTT cytotoxicity assay on normal fibroblasts. To be noted: WI-38 normal fibroblast cells, 24 h, mean ± SEM. How it is done: as §1
Series [11] deals with calcium-independent ATPases in Caco-2 cells. Description: Calcium-independent ATPase activity, malachite green colorimetric. As to conditions: Caco-2, IC50 dose, 24 h; 0.1% DMSO control normalized to 100%. As to the method: as §3
In series [12] the test system is RAR-α gene in Caco-2 cells. Description: Gene expression RT-qPCR. To be noted: Caco-2, IC50 dose, 24 h, relative to 0.1% DMSO, normalized to GAPDH. How it is done: as §2
The test system of series [13] is RAR-α, RAR-β, RAR-γ proteins in Caco-2 cells. As to the kind of experiment: Western blotting of RAR proteins. As to conditions: Caco-2, IC50 dose, 24 h, normalized to β-actin. How it is done: Using the previously outlined protocol, the western blot technique was used to determine the expression of RAR-α (Cat. No. E6Z6 K, cell signaling, USA), RAR-β (Cat. No. PP-H4338-00, R&D systems, USA) and RAR- γ (Cat. No. D3 A4, cell signaling, USA) in Caco-2 cells. […] Following incubation, floating adhered cells were separated and lysed. The Caco-2 cell lysate was immediately collected, subjected to sonication, and centrifuged for 15 min at 12,000 × g. The total soluble protein content was measured colorimetrically using the PierceTM 660 nm Assay (Thermo Scientific, Waltham, MA, USA) after the resultant supernatant was separated. The Gel documentation system (Geldoc-it, UVP, England) was applied for data analysis using Totallab analysis software (Ver.1.0.1) (ww.totallab.com).

“And” between values parts separate entries of the source, which are not always exact repeats. Equal values may be shown once.

Usually IC50 stands for the concentration that gives 50% inhibition. A lower IC50 goes with higher potency. With `CC1=C(/C=C/C(C)=C/C=C/C(C)=C/C(=O)O)C(C)(C)CCC1` [ATRA, all-trans-retinoic acid, reference compound], the IC50 in the series on HCT-116 was 38.8 ± 0.9 µM. In the series with PC-3, the midpoint of inhibition, the IC50, lay at 2.21 ± 0.1 µM. Also, in the series with MCF-7, the IC50 was found to be 4.93 ± 0.4 µM. This compound displayed an IC50 with HepG-2 of 16 ± 1.3 µM. In the series with Caco-2, this compound came in with an IC50 of 11.4 ± 0.3 µM. Moreover, the IC50 with MDA-MB231 is 10.4 ± 0.2 µM. In the series with Caco-2 cancer cells [1], the “% Early apoptotic cells (LR)” value is on record as 1.20 ± 0.1%; the “% Late apoptotic cells (UL)” value worked out at 0.03%; the “% Necrotic cells (UR)” value is 98.74% and 98.74 ± 8.7 %; the “% Viable cells (LL)” value worked out at 0.02%. In addition, the “caspase-3 gene expression fold change” value in series [2] worked out at 1.6 ± 0.1 fold. Also, in series [3], the “RAR-γ gene expression fold change” value turned out to be 4.1 ± 0.2 fold. Besides, the “CRABPII gene expression fold change” value in series [4] is recorded as “no effect”. In addition, the “Cyt-C gene expression fold change” value in series [5] turned out to be 7.7 ± 0.3 fold. The “CRABPI gene expression fold change” value in [6] was found to be 1.2 fold. In addition, in the series on Caco-2 cancer cells [7], the “% G0-G1” value turned out to be 17.37 ± 6.1%, the “% G2M” value was 3.05 ± 0.7%, the “% S” value is reported as 5.39 ± 1.4% and the “% SubG0-G1” value is 74.63 ± 5.8 %. For the same compound, the “RAR-β gene expression fold change” value in series [8] amounted to 35.3 ± 1.6 fold. For the same compound, in series [9], the “total ATPase activity” value was 42.2%. The compound also returned an IC50 in series [10] of 46.9 ± 2.8 µM. In [11], the “ca+2-independent ATPase activity” value is 39.4%.
As to `O=C(O)c1ccc2cc(-c3ccc4c(c3)CCCO4)ccc2c1` [Compound 4b, 6-(chroman-6-yl)−2-naphthoic acid], inhibition in the series with HCT-116 was half-maximal at 36.9 ± 2.4 µM (IC50). Besides, in the series with PC-3, it took 2.71 ± 0.2 µM to reach half-maximal inhibition (IC50). The compound further showed an IC50 with MCF-7 of 53.1 ± 5.4 µM. In the series on HepG-2, inhibition was half-maximal at 59.5 ± 3.5 µM (IC50). In addition, in the series on Caco-2, the IC50 was 15 ± 0.4 µM. Half-maximal inhibition in the series on MDA-MB231 (IC50) required 2.28 ± 0.2 µM. In the series on Caco-2 cancer cells [1], the “% Early apoptotic cells (LR)” value was 61.41% and 61.41 ± 5.3 %; the “% Late apoptotic cells (UL)” value is on record as 0.09%; the “% Necrotic cells (UR)” value turned out to be 38.12 ± 2.8 %; the “% Viable cells (LL)” value turned out to be 0.37%. Moreover, the “caspase-3 gene expression fold change” value in series [2] is recorded as 2.3 ± 0.1 fold. The “RAR-γ gene expression fold change” value in [3] is reported as 4.3 ± 0.2 fold. In addition, the “CRABPII gene expression fold change” value in [4] was 2.0 ± 0.1 fold. Also, the “RAR-α gene expression fold change” value in series [12] turned out to be 2.9 ± 0.1 fold. Also, the “Cyt-C gene expression fold change” value in [5] is given as 1.7 ± 0.1 fold. Moreover, in series [6], the “CRABPI gene expression fold change” value is given as 53.5 ± 2.4 fold. Further, in the series on Caco-2 cancer cells [7], the “% G0-G1” value is given as 17.69 ± 3.2%; the “% G2M” value was 1.76 ± 0.1%; the “% S” value is on record as 4.16 ± 1.5%; the “% SubG0-G1” value was 76.81% and 76.81 ± 6.7 %. Besides, in [9], the “total ATPase activity” value is listed as 34.6%. In series [10], this compound returned an IC50 of 33.5 ± 3.4 µM. The “RAR protein expression (western blot)” value in series [13] is “overexpression of all RAR subtypes”. Also, in [11], the “ca+2-independent ATPase activity” value was determined as 36.1%.
